This note sets out measurements from ChEMBL document CHEMBL1155788, “Bis(sulfonamide) isosters of mycophenolic adenine dinucleotide analogues: inhibition of inosine monophosphate dehydrogenase” (Bioorg Med Chem, 2008).

Experiment [1] concerns the target Inosine-5'-monophosphate dehydrogenase 1 (Homo sapiens, UniProt P20839). The experiment is described as follows: Inhibition of human IMP dehydrogenase 1.
The target of experiment [2] is Inosine-5'-monophosphate dehydrogenase 2 (Homo sapiens, UniProt P12268). Nature of the experiment: Inhibition of human IMP dehydrogenase 2.
The nature of experiment [3]: Inhibition of IMP dehydrogenase.

Chain of Inosine-5'-monophosphate dehydrogenase 1 (P20839 whole entry): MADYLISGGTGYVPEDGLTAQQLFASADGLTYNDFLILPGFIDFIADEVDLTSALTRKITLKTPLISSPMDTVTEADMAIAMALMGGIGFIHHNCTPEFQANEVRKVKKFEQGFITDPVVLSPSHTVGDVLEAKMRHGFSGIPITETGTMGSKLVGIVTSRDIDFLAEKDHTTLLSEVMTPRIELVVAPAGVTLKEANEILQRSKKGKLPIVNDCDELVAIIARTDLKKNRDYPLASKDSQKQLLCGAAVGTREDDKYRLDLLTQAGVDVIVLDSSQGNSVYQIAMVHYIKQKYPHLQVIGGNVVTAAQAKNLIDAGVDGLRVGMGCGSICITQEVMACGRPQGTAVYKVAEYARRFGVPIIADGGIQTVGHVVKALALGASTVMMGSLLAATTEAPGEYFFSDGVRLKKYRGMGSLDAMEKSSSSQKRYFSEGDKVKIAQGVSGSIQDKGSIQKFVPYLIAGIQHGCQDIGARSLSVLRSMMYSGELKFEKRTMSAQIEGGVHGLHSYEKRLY

For the compound `NC(=O)c1csc([C@@H]2O[C@H](CNS(=O)(=O)CS(=O)(=O)NC[C@H]3O[C@@H](n4cnc5c(N)ncnc54)[C@H](O)[C@@H]3O)[C@@H](O)[C@H]2O)n1`, the IC50 (commonly the midpoint of a concentration-inhibition curve) in experiment [1] is 23600 nM.
On to `COc1c(C)c2c(c(O)c1CCNS(=O)(=O)CS(N)(=O)=O)C(=O)OC2` [MYCOPHENOLIC BIS(SULFONAMIDE)], for which the Ki (in general, the equilibrium dissociation constant of an inhibitor or competing ligand from its target) in experiment [1] was found to be 18200 nM; in experiment [2], 4000 nM.
For `COc1c(C)c2c(c(O)c1CCO)C(=O)OC2`, in that order: 15400 nM and 3000 nM.
In experiment [3], `NC(=O)c1c[se]c([C@@H]2O[C@H](COP(=O)(O)OP(=O)(O)OC[C@H]3O[C@@H](n4cnc5c(N)ncnc54)[C@H](O)[C@@H]3O)[C@@H](O)[C@H]2O)n1` returned a Ki of 40 nM. This counts as double-digit nanomolar.
On to `C#Cc1nc(N)c2ncn([C@@H]3O[C@H](CNS(=O)(=O)CS(=O)(=O)NCCc4c(O)c5c(c(C)c4OC)COC5=O)[C@@H](O)[C@H]3O)c2n1`, for which the inhibitory constant (Ki) in experiment [1] was found to be 520 nM; in experiment [2] it was 180 nM.
For `CCc1nc(N)c2ncn([C@@H]3O[C@H](CNS(=O)(=O)CS(=O)(=O)NCCc4c(O)c5c(c(C)c4OC)COC5=O)[C@@H](O)[C@H]3O)c2n1`, in that order: 820 nM and 440 nM.
For `Nc1ncnc2c1ncn2[C@@H]1O[C@H](CO)[C@@H](O)[C@H]1O` [ADENOSINE], the inhibitory constant (Ki) in experiment [1] and in experiment [2] was above 100000 nM each time.
Regarding `NC(=O)c1csc([C@@H]2O[C@H](COP(=O)(O)OP(=O)(O)OC[C@H]3O[C@@H](n4cnc5c(N)ncnc54)[C@H](O)[C@@H]3O)[C@@H](O)[C@H]2O)n1` [TIAZOFURIN ADENINE DINUCLEOTIDE], the Ki in experiment [3] was 100 nM. That is a sub-micromolar value.
On the same count and under the same terms, to `NC(=O)c1csc([C@@H]2O[C@H](CO)[C@@H](O)[C@H]2O)n1` [TIAZOFURIN] belongs 100 nM.
Regarding `COc1c(C)c2c(c(O)c1CCOP(=O)(O)CP(=O)(O)OC[C@H]1O[C@@H](n3cnc4c(N)nc(-c5ccccc5)nc43)[C@H](O)[C@@H]1O)C(=O)OC2`, the Ki in experiment [1] stood at 70 nM.
Turning to `Nc1ncnc2c1ncn2[C@@H]1O[C@H](CNS(=O)(=O)CS(N)(=O)=O)[C@@H](O)[C@H]1O`, the Ki in experiment [1] and in experiment [2] was above 100000 nM in each case.
Turning to `COc1c(C)c2c(c(O)c1CCNS(=O)(=O)CS(=O)(=O)NC[C@H]1O[C@@H](n3cnc4c(N)nc(-c5ccccc5)nc43)[C@H](O)[C@@H]1O)C(=O)OC2`, the Ki in experiment [1] worked out at 660 nM; in experiment [2], 310 nM.
